Results reported in patent publication US10765114B2, “4-amino-6-(pyridyl and 2-substitutedphenyl)-picolinates and 6-amino-2-(pyridyl and 2-substitutedphenyl)-pyrimidine-4-carboxylates and their use as herbicides” (Dow AgroSciences LLC, priority 2013, dated 2020).

Test system: Key Grass and Sedge Weeds as well as Grass Crops
Assay: Post-Emergent Test II (Table 6)
Assay type: in vivo
Settings: post-emergence, 336 h, CYPSS, 70 g ai/ha, 14 days after application, read-out: Visual Growth Reduction (%) 14 Days After Application CYPSS
How it was run: (§1)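 Plants at first or second true-leaf stage, grown 7-21 days in greenhouse, were sprayed post-emergence at 187 L/ha with compounds in acetone/DMSO/water/crop oil/surfactant mixture at the high rate and ½× to 1/16× dilutions. Injury scored visually after 14 days, 0 (none) to 100% (complete kill), versus untreated plants.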
`Nc1c(F)c(-c2ccc(OC(F)F)nc2)nc(C(=O)O)c1Cl` [Compound 66] showed a pest or weed control at 70 g/ha of 45 to 59%.

Same assay, conditions: post-emergence, 336 h, CYPSS, 140 g ai/ha, 14 days after application, read-out: Visual Growth Reduction (%) 14 Days After Application CYPSS
For `Nc1c(F)c(-c2ccc(OC(F)F)nc2)nc(C(=O)O)c1Cl` [Compound 66], the pest or weed control at 140 g/ha was 45 to 59%.

Same assay, conditions: post-emergence, 336 h, DIGSA: crabgrass (Digitaria sanguinalis), 70 g ai/ha, 14 days after application, read-out: Visual Growth Reduction (%) 14 Days After Application DIGSA
In the case of `Nc1c(F)c(-c2ccc(OC(F)F)nc2)nc(C(=O)O)c1Cl` [Compound 66], the pest or weed control at 70 g/ha is reported as 60 to 74%.

Same assay, conditions: post-emergence, 336 h, DIGSA: crabgrass (Digitaria sanguinalis), 140 g ai/ha, 14 days after application, read-out: Visual Growth Reduction (%) 14 Days After Application DIGSA
With `Nc1c(F)c(-c2ccc(OC(F)F)nc2)nc(C(=O)O)c1Cl` [Compound 66] the pest or weed control at 140 g/ha was 60 to 74%.

Same assay, conditions: post-emergence, 336 h, ECHSS, 70 g ai/ha, 14 days after application, read-out: Visual Growth Reduction (%) 14 Days After Application ECHSS
`Nc1c(F)c(-c2ccc(OC(F)F)nc2)nc(C(=O)O)c1Cl` [Compound 66] showed a pest or weed control at 70 g/ha of 75 to 84%.

Same assay, conditions: post-emergence, 336 h, ECHSS, 140 g ai/ha, 14 days after application, read-out: Visual Growth Reduction (%) 14 Days After Application ECHSS
For `Nc1c(F)c(-c2ccc(OC(F)F)nc2)nc(C(=O)O)c1Cl` [Compound 66], the pest or weed control at 140 g/ha was 75 to 84%.

Same assay, conditions: post-emergence, 336 h, ORYSS (crop), 70 g ai/ha, 14 days after application, read-out: Visual Growth Reduction (%) 14 Days After Application ORYSS
Work on `Nc1c(F)c(-c2ccc(OC(F)F)nc2)nc(C(=O)O)c1Cl` [Compound 66] yielded a pest or weed control at 70 g/ha of 0 to 29%.

Same assay, conditions: post-emergence, 336 h, ORYSS (crop), 140 g ai/ha, 14 days after application, read-out: Visual Growth Reduction (%) 14 Days After Application ORYSS
`Nc1c(F)c(-c2ccc(OC(F)F)nc2)nc(C(=O)O)c1Cl` [Compound 66] showed a pest or weed control at 140 g/ha of 0 to 29%.

Same assay, conditions: post-emergence, 336 h, SETFA: giant foxtail (Setaria faberi), 70 g ai/ha, 14 days after application, read-out: Visual Growth Reduction (%) 14 Days After Application SETFA
With `Nc1c(F)c(-c2ccc(OC(F)F)nc2)nc(C(=O)O)c1Cl` [Compound 66] the pest or weed control at 70 g/ha was 60 to 74%.

Same assay, conditions: post-emergence, 336 h, SETFA: giant foxtail (Setaria faberi), 140 g ai/ha, 14 days after application, read-out: Visual Growth Reduction (%) 14 Days After Application SETFA
In the case of `Nc1c(F)c(-c2ccc(OC(F)F)nc2)nc(C(=O)O)c1Cl` [Compound 66], the pest or weed control at 140 g/ha is reported as 60 to 74%.

Same assay, conditions: post-emergence, 336 h, SORVU: grain sorghum (Sorghum vulgare), 70 g ai/ha, 14 days after application, read-out: Visual Growth Reduction (%) 14 Days After Application SORVU
Compound `Nc1c(F)c(-c2ccc(OC(F)F)nc2)nc(C(=O)O)c1Cl` [Compound 66] has a pest or weed control at 70 g/ha of 30 to 44%.

Same assay, conditions: post-emergence, 336 h, SORVU: grain sorghum (Sorghum vulgare), 140 g ai/ha, 14 days after application, read-out: Visual Growth Reduction (%) 14 Days After Application SORVU
In the case of `Nc1c(F)c(-c2ccc(OC(F)F)nc2)nc(C(=O)O)c1Cl` [Compound 66], the pest or weed control at 140 g/ha is reported as 75 to 84%.

Same assay, conditions: post-emergence, 336 h, TRZSS (crop), 70 g ai/ha, 14 days after application, read-out: Visual Growth Reduction (%) 14 Days After Application TRZSS
With `Nc1c(F)c(-c2ccc(OC(F)F)nc2)nc(C(=O)O)c1Cl` [Compound 66] the pest or weed control at 70 g/ha was 45 to 59%.

Same assay, conditions: post-emergence, 336 h, TRZSS (crop), 140 g ai/ha, 14 days after application, read-out: Visual Growth Reduction (%) 14 Days After Application TRZSS
Work on `Nc1c(F)c(-c2ccc(OC(F)F)nc2)nc(C(=O)O)c1Cl` [Compound 66] yielded a pest or weed control at 140 g/ha of 60 to 74%.

Same assay, conditions: post-emergence, 336 h, ZEAMX: maize, corn (Zea mays), 70 g ai/ha, 14 days after application, read-out: Visual Growth Reduction (%) 14 Days After Application ZEAMX
`Nc1c(F)c(-c2ccc(OC(F)F)nc2)nc(C(=O)O)c1Cl` [Compound 66] gave a pest or weed control at 70 g/ha of 60 to 74%.

Same assay, conditions: post-emergence, 336 h, ZEAMX: maize, corn (Zea mays), 140 g ai/ha, 14 days after application, read-out: Visual Growth Reduction (%) 14 Days After Application ZEAMX
`Nc1c(F)c(-c2ccc(OC(F)F)nc2)nc(C(=O)O)c1Cl` [Compound 66] gave a pest or weed control at 140 g/ha of 60 to 74%.

Test system: Key Broadleaf Weed and Crop Species
Assay: Post-Emergent Test II (Table 5)
Assay type: in vivo
Settings: Abutilon theophrasti, post-emergence, 336 h, ABUTH: velvetleaf (Abutilon theophrasti), application rate 70 (kg ai/ha; footnote: g ai/ha), read-out: Visual Growth Reduction (%) 14 Days After Application ABUTH
How it was run: as §1
Work on `Nc1c(F)c(-c2ccc(OC(F)F)nc2)nc(C(=O)O)c1Cl` [Compound 66] yielded a pest or weed control at 70 g/ha of 75 to 84%.

Same assay, conditions: Abutilon theophrasti, post-emergence, 336 h, ABUTH: velvetleaf (Abutilon theophrasti), application rate 140 (kg ai/ha; footnote: g ai/ha), read-out: Visual Growth Reduction (%) 14 Days After Application ABUTH
Work on `Nc1c(F)c(-c2ccc(OC(F)F)nc2)nc(C(=O)O)c1Cl` [Compound 66] yielded a pest or weed control at 140 g/ha of 85 to 94%.

Same assay, conditions: Amaranthus retroflexus, post-emergence, 336 h, AMARE: redroot pigweed (Amaranthus retroflexus), application rate 70 (kg ai/ha; footnote: g ai/ha), read-out: Visual Growth Reduction (%) 14 Days After Application AMARE
In the case of `Nc1c(F)c(-c2ccc(OC(F)F)nc2)nc(C(=O)O)c1Cl` [Compound 66], the pest or weed control at 70 g/ha is reported as 0 to 29%.

Same assay, conditions: Amaranthus retroflexus, post-emergence, 336 h, AMARE: redroot pigweed (Amaranthus retroflexus), application rate 140 (kg ai/ha; footnote: g ai/ha), read-out: Visual Growth Reduction (%) 14 Days After Application AMARE
`Nc1c(F)c(-c2ccc(OC(F)F)nc2)nc(C(=O)O)c1Cl` [Compound 66] gave a pest or weed control at 140 g/ha of 0 to 29%.

Same assay, conditions: Brassica napus, post-emergence, 336 h, BRSSS: oilseed rape, canola (Brassica napus), application rate 70 (kg ai/ha; footnote: g ai/ha), read-out: Visual Growth Reduction (%) 14 Days After Application BRSSS
`Nc1c(F)c(-c2ccc(OC(F)F)nc2)nc(C(=O)O)c1Cl` [Compound 66] gave a pest or weed control at 70 g/ha of 0 to 29%.

Same assay, conditions: Brassica napus, post-emergence, 336 h, BRSSS: oilseed rape, canola (Brassica napus), application rate 140 (kg ai/ha; footnote: g ai/ha), read-out: Visual Growth Reduction (%) 14 Days After Application BRSSS
`Nc1c(F)c(-c2ccc(OC(F)F)nc2)nc(C(=O)O)c1Cl` [Compound 66] gave a pest or weed control at 140 g/ha of 0 to 29%.

Same assay, conditions: Chenopodium album, post-emergence, 336 h, CHEAL: lambsquarters (Chenopodium album), application rate 70 (kg ai/ha; footnote: g ai/ha), read-out: Visual Growth Reduction (%) 14 Days After Application CHEAL
`Nc1c(F)c(-c2ccc(OC(F)F)nc2)nc(C(=O)O)c1Cl` [Compound 66] showed a pest or weed control at 70 g/ha of 85 to 94%.

Same assay, conditions: Chenopodium album, post-emergence, 336 h, CHEAL: lambsquarters (Chenopodium album), application rate 140 (kg ai/ha; footnote: g ai/ha), read-out: Visual Growth Reduction (%) 14 Days After Application CHEAL
For `Nc1c(F)c(-c2ccc(OC(F)F)nc2)nc(C(=O)O)c1Cl` [Compound 66], the pest or weed control at 140 g/ha was 95 to 100%.

Same assay, conditions: Euphorbia heterophylla, post-emergence, 336 h, EPHHL: wild poinsettia (Euphorbia heterophylla), application rate 70 (kg ai/ha; footnote: g ai/ha), read-out: Visual Growth Reduction (%) 14 Days After Application EPHHL
`Nc1c(F)c(-c2ccc(OC(F)F)nc2)nc(C(=O)O)c1Cl` [Compound 66] gave a pest or weed control at 70 g/ha of 95 to 100%.

Same assay, conditions: Euphorbia heterophylla, post-emergence, 336 h, EPHHL: wild poinsettia (Euphorbia heterophylla), application rate 140 (kg ai/ha; footnote: g ai/ha), read-out: Visual Growth Reduction (%) 14 Days After Application EPHHL
For `Nc1c(F)c(-c2ccc(OC(F)F)nc2)nc(C(=O)O)c1Cl` [Compound 66], the pest or weed control at 140 g/ha was 95 to 100%.

Same assay, conditions: Helianthus annuus, post-emergence, 336 h, HELAN: sunflower (Helianthus annuus), application rate 70 (kg ai/ha; footnote: g ai/ha), read-out: Visual Growth Reduction (%) 14 Days After Application HELAN
Work on `Nc1c(F)c(-c2ccc(OC(F)F)nc2)nc(C(=O)O)c1Cl` [Compound 66] yielded a pest or weed control at 70 g/ha of 85 to 94%.

Same assay, conditions: Helianthus annuus, post-emergence, 336 h, HELAN: sunflower (Helianthus annuus), application rate 140 (kg ai/ha; footnote: g ai/ha), read-out: Visual Growth Reduction (%) 14 Days After Application HELAN
Compound `Nc1c(F)c(-c2ccc(OC(F)F)nc2)nc(C(=O)O)c1Cl` [Compound 66] has a pest or weed control at 140 g/ha of 85 to 94%.

Same assay, conditions: Viola tricolor, post-emergence, 336 h, VIOTR: wild pansy (Viola tricolor), application rate 70 (kg ai/ha; footnote: g ai/ha), read-out: Visual Growth Reduction (%) 14 Days After Application VIOTR
With `Nc1c(F)c(-c2ccc(OC(F)F)nc2)nc(C(=O)O)c1Cl` [Compound 66] the pest or weed control at 70 g/ha was 60 to 74%.

Same assay, conditions: Viola tricolor, post-emergence, 336 h, VIOTR: wild pansy (Viola tricolor), application rate 140 (kg ai/ha; footnote: g ai/ha), read-out: Visual Growth Reduction (%) 14 Days After Application VIOTR
Work on `Nc1c(F)c(-c2ccc(OC(F)F)nc2)nc(C(=O)O)c1Cl` [Compound 66] yielded a pest or weed control at 140 g/ha of 60 to 74%.

Test system: not given
Assay: not given
Settings: not given
In the case of `Nc1c(F)c(-c2ccc(OC(F)F)nc2)nc(C(=O)O)c1Cl` [Compound 66], the melting point is reported as 134 to 136 °C.
